In ChEMBL document CHEMBL1147120, “Chemical constituents of malagasy Liverworts. 6. A myltaylane caffeate with nitric oxide inhibitory activity from Bazzania nitida” (J Nat Prod, 2007):

Test system: RAW
Test: Inhibition of LPS-induced NO production in RAW 264.7 cells
Assay type: functional, cell-based
Settings: Mus musculus

IC50: 6.3 µM
Structure (SMILES): C=C1C[C@]23C[C@H](OC(=O)/C=C/c4ccc(O)c(O)c4)[C@H]1[C@@]2(C)CCCC3(C)C
